Values of other authors, collected in patent US5773415A, “Use of des-aspartate-angiotensin I as an anti-cardiac hypertrophic agent” (National University of Singapore, priority 1995, dated 1998).

Test system: specific aminopeptidase
Conditions: homogenates of rat aorta and hypothalamus

Inhibition of the aminopeptidase degrading angiotensin I to des-Aspartate-angiotensin I, not inhibited:
O=C(O)CN(CCN(CC(=O)O)CC(=O)O)CC(=O)O [EDTA]
CC(C)C[C@@H](N)[C@H](O)C(=O)N[C@H](C(=O)N[C@H](C(=O)N[C@@H](CC(=O)O)C(=O)O)C(C)C)C(C)C [amastatin]
CC(C)C[C@H](NC(=O)[C@@H](O)[C@H](N)Cc1ccccc1)C(=O)O [bestatin]
